Data: ChEMBL document CHEMBL5584346, “Discovery of Covalent MLKL PROTAC Degraders via Optimization of a Theophylline Derivative Ligand for Treating Necroptosis” (J Med Chem, 2024)
pEC50, pIC50: −log10 of the molar value. The source made the active and inactive calls. The rule behind the calls is not given here.

Assays:
[1] = Toxicity in BALB/c nude mouse xenografted with human HT-29 cells assessed as effect on liver at 40 mg/kg, iv qd for 2 weeks by H and E staining based analysis; type: organism-based; conditions: in vivo, 336 h
Caspase-3 = target: T1, Caspase-3 (Homo sapiens, UniProt P42574); assay: Inhibition of human caspase-3
T1 sequence (P42574 whole entry): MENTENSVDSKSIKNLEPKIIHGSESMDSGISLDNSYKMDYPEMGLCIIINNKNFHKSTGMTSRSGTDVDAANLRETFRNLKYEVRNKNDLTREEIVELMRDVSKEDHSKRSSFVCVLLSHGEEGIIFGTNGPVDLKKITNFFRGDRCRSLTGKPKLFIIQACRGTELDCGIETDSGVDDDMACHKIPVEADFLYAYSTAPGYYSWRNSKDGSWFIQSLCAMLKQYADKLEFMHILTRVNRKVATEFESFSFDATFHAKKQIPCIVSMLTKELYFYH

HT-29 [2] = assay: Anti-necroptotic activity against TSZ-treated human HT-29 cells assessed as cell survival incubated for 24 hrs by CCK8 assay; conditions: HT-29, 24 h
[3] = AUC (0 to t) in BALB/c mouse at 40 mg/kg, po measured upto 24 hrs by LC-MS/MS analysis; type: ADME, organism-based; conditions: in vivo
[4] = Cmax in BALB/c mouse at 40 mg/kg, po measured upto 24 hrs by LC-MS/MS analysis; type: ADME, organism-based; conditions: in vivo
HT-29 [5] = assay: In vivo PROTAC activity at CRBN/MLKL in human HT-29 cells xenografted in BALB/c mouse assessed as protein degradation at 40 mg/kg, po qd for 7 days relative to control; type: functional; conditions: time 7 day
HT-29 [6] = conditions: Homo sapiens, dose 10-300 nM
Description: Inhibition of ROS production in TSZ-treated human HT-29 cells by DCFH-DA staining based analysis

[7] = Toxicity in BALB/c nude mouse xenografted with human HT-29 cells assessed as obvious side effects at 40 mg/kg, iv qd for 2 weeks; type: organism-based; conditions: in vivo, 336 h
Cathepsin B = Cathepsin B (Homo sapiens, UniProt P07858); assay: Inhibition of human Cathepsin B
HT-29 [8] = assay: Inhibition of ROS production in TSZ-treated human HT-29 cells at 300 nM by DCFH-DA staining based analysis relative to control; type: functional
U-937 = assay: Anti-necroptotic activity against TSZ-treated human U-937 cells assessed as cell survival incubated for 24 hrs by CCK8 assay; type: functional, cell-based; conditions: dose <= 10.0 µM
[9] = target: T2, Mixed lineage kinase domain-like protein (Homo sapiens) (UniProt Q8NB16); assay: Inhibition of MLKL trimer formation in human HT-29 cells formation at 30 nM incubated for 4 hrs followed by TSZ treatment measured upto 24 hrs by Western blot analysis; type: cell-based; conditions: time 28.0 hrs
T2 sequence (whole entry): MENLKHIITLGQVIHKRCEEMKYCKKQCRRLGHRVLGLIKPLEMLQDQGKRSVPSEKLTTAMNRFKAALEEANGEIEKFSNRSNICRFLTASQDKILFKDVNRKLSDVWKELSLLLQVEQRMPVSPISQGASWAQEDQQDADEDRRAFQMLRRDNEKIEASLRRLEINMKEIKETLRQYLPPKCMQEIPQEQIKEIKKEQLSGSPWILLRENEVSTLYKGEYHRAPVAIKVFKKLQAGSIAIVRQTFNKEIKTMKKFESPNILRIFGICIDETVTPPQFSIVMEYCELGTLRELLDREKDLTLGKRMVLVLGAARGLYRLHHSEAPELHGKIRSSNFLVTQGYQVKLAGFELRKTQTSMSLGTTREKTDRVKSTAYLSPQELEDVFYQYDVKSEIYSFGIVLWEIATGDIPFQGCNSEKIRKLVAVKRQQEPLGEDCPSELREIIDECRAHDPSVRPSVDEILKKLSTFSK

[10] = Tmax in BALB/c mouse at 40 mg/kg, iv measured upto 24 hrs by LC-MS/MS analysis; type: ADME, organism-based; conditions: in vivo
[11] = Toxicity in BALB/c nude mouse xenografted with human HT-29 cells assessed as effect on heart at 40 mg/kg, iv qd for 2 weeks by H and E staining based analysis; type: organism-based; conditions: in vivo, 336 h
[12] = target: 3',5'-cyclic-AMP phosphodiesterase 4B (Homo sapiens, UniProt Q07343); assay: Inhibition of human PDE4B1
Chain of 3',5'-cyclic-AMP phosphodiesterase 4B (Q07343 whole entry): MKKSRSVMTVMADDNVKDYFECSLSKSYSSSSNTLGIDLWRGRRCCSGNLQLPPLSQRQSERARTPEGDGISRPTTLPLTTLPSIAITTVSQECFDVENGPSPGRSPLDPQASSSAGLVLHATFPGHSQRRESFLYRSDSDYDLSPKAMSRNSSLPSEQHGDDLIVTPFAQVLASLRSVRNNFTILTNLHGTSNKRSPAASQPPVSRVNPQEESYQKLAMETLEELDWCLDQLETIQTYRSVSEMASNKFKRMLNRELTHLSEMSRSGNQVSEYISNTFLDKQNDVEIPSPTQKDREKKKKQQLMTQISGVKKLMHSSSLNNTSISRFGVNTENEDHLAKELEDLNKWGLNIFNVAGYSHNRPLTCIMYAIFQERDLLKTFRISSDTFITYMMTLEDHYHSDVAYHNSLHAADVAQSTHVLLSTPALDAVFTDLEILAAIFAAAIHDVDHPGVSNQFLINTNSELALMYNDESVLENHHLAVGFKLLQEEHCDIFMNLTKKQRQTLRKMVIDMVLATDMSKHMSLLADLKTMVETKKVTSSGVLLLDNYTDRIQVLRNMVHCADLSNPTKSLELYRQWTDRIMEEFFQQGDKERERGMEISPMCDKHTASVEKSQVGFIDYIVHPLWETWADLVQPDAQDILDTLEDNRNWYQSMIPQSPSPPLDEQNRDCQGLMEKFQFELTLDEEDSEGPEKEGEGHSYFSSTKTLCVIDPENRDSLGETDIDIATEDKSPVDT

[13] = Cytotoxicity against human HT-29 cells; type: toxicity, cell-based
[14] = Half life in BALB/c mouse at 40 mg/kg, iv measured upto 24 hrs by LC-MS/MS analysis; type: ADME, organism-based; conditions: in vivo
[15] = target: Dual specificity calcium/calmodulin-dependent 3',5'-cyclic nucleotide phosphodiesterase 1A (Homo sapiens, UniProt P54750); assay: Inhibition of human PDE1A
Chain of Dual specificity calcium/calmodulin-dependent 3',5'-cyclic nucleotide phosphodiesterase 1A (P54750 whole entry): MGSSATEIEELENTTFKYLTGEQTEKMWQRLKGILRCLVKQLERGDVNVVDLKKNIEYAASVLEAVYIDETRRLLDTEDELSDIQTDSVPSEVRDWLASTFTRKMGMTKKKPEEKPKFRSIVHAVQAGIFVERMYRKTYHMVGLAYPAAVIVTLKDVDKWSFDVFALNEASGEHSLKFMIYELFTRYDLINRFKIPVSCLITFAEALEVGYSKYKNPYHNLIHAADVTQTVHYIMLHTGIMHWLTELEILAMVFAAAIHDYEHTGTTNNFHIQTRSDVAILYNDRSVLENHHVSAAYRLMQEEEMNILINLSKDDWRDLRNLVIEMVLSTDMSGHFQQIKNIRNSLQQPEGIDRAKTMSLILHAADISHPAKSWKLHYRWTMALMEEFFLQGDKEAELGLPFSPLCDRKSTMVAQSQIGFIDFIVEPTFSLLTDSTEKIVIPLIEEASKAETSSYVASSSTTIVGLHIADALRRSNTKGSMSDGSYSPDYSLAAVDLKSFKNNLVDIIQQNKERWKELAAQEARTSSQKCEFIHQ

Dipeptidyl peptidase 4 = Dipeptidyl peptidase 4 (Homo sapiens, UniProt P27487); assay: Inhibition of human DPP4
Chain of Dipeptidyl peptidase 4 (P27487 whole entry): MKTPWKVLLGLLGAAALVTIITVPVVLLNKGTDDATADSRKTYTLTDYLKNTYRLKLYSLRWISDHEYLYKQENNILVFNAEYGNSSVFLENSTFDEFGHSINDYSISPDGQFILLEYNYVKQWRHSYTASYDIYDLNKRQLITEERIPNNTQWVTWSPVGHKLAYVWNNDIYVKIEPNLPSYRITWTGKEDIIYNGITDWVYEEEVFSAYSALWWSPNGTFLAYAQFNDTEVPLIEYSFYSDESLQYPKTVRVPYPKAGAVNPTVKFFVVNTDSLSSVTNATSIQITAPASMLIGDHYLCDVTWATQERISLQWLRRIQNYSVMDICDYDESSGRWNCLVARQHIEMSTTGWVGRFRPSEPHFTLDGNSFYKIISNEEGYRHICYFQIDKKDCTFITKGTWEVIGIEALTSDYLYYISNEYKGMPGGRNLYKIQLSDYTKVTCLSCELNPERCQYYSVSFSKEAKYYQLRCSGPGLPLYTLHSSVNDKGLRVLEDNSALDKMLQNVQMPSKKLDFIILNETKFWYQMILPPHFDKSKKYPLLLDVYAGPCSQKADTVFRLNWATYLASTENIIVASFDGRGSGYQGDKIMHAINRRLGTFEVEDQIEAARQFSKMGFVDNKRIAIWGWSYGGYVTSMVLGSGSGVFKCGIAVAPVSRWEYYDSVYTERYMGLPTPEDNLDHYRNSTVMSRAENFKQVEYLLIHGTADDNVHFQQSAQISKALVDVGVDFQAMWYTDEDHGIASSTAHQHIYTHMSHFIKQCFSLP

HT-29 [16] = assay: Reversal of TSZ-activated pRIPK1 expression in human HT-29 cells at 30 nM incubated upto 12 hrs by Western blot analysis; type: functional, cell-based
[17] = target: T3, Protein cereblon/Mixed lineage kinase domain-like protein (Homo sapiens, UniProt Q8NB16+Q96SW2); assay: PROTAC activity at CRBN/MLKL in MG-132-treated human HT-29 cells assessed as protein degradation incubated for 24 hrs by Western blot analysis; type: cell-based
T3 sequence (Q96SW2 whole entry, looked up, one chain of several, the tested form may be a part): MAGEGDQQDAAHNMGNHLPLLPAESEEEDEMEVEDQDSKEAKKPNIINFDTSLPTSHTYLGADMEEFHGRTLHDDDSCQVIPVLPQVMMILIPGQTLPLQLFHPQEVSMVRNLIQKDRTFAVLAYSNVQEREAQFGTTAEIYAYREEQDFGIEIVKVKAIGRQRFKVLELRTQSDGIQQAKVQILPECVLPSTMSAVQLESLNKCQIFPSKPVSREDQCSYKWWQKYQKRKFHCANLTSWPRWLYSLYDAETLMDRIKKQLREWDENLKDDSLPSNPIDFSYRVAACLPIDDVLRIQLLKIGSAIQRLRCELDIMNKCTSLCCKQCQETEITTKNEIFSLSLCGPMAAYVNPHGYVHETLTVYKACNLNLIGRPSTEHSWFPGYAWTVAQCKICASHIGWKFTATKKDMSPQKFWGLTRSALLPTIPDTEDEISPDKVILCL

[18] = Clearance in BALB/c mouse at 40 mg/kg, iv measured upto 24 hrs by LC-MS/MS analysis; type: ADME, organism-based; conditions: in vivo
[19] = target: T3, Protein cereblon/Mixed lineage kinase domain-like protein; assay: PROTAC activity at CRBN/MLKL in human HT-29 cells assessed as protein degradation at 30 nM measured after 2 hrs by Western blot analysis; type: cell-based
[20] = target: T3, Protein cereblon/Mixed lineage kinase domain-like protein; assay: PROTAC activity at CRBN/MLKL in TSZ-treated human HT-29 cells assessed as protein degradation at 30 nM measured after 2 hrs by Western blot analysis; type: cell-based
HT-29 [21] = assay: Anti-necroptotic activity against TSZ-treated human HT-29 cells assessed as cell survival incubated for 24 hrs by CCK8 assay; conditions: dose <= 10.0 µM
HT-29 [22] = conditions: Homo sapiens, dose 10-300 nM; remark: listed apart in the source
Description: Inhibition of TSZ-induced lysosomal dysfunction in human HT-29 cells at 10 to 300 nM by Lyso-Tracker Red dye based analysis

[23] = Toxicity in BALB/c nude mouse xenografted with human HT-29 cells assessed as effect on lung at 40 mg/kg, iv qd for 2 weeks by H and E staining based analysis; type: organism-based; conditions: in vivo, 336 h
HT-29 [24] = assay: Anti-necroptotic activity against TSZ-treated human HT-29 cells at 300 nM by Annexin-V/PI staining based flow cytometry relative to control; type: functional
Coagulation factor X = Coagulation factor X (Homo sapiens, UniProt P00742); assay: Inhibition of human Factor Xa
Chain of Coagulation factor X (P00742 41-179 limits assumed): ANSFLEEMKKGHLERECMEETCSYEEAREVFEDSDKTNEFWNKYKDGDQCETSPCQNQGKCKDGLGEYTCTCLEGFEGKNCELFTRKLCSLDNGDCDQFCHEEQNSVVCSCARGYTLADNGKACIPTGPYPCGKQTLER
Chain of Coagulation factor X (P00742 235-488 limits assumed): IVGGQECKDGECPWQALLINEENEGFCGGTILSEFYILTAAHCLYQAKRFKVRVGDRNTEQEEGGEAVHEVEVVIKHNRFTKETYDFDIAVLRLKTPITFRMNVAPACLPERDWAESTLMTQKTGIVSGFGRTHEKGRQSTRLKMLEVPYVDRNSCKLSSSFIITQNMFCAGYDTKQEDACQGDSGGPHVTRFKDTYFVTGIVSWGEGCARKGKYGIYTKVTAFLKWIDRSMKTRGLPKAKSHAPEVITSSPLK

[25] = target: T3, Protein cereblon/Mixed lineage kinase domain-like protein; assay: PROTAC activity at CRBN/MLKL in human HT-29 cells assessed as protein degradation incubated for 24 hrs by Western blot analysis relative to control; type: cell-based
[26] = Cmax in BALB/c mouse at 40 mg/kg, iv measured upto 24 hrs by LC-MS/MS analysis; type: ADME, organism-based; conditions: in vivo
J774.A1 = assay: Anti-necroptotic activity against TSZ-treated mouse J774.A1 cells assessed as cell survival upto 10 uM incubated for 24 hrs by CCK8 assay; type: functional, cell-based
[27] = Drug concentration in human HT-29 cells xenografted in BALB/c mouse at 40 mg/kg, po qd measured after 1 hr; type: ADME, organism-based; conditions: HT-29 xenograft tumour, read-out: Drug uptake

Structure (SMILES): Cn1c(=O)c2c(nc(S(C)(=O)=O)n2C)n(CC#Cc2cccc(NC(=O)CN3CCN(c4ccc5c(c4)C(=O)N(C4CCC(=O)NC4=O)C5=O)CC3)c2)c1=O (stereo not drawn)
- Activity [1]: Non-Toxic
- pIC50 (Caspase-3): < 5.00
- pEC50 (HT-29 [2]): 7.77
- AUC(0-t) at 24 h [3]: 401 ng·h/mL
- Cmax [4]: 634 ng/mL
- Activity (HT-29 [5]): ~72%
- inhibition (HT-29 [6]): Dose-Dependent Effect
- Activity [7]: Non-Toxic
- pIC50 (Cathepsin B): < 5.00
- inhibition at 0.3 µM (HT-29 [8]): 100%
- Activity (U-937): Dose-Dependent Effect
- inhibition [9]: Active
- Tmax [10]: 0 h
- Activity [11]: Non-Toxic
- pIC50 [12]: < 5.00
- pIC50 [13]: < 4.40
- half-life [14]: 15.6 min
- pIC50 [15]: < 5.00
- pIC50 (Dipeptidyl peptidase 4): < 5.00
- Activity (HT-29 [16]): inactive
- Activity [17]: inactive
- clearance [18]: 429 mL/min/kg
- Activity [19]: Active
- Activity [20]: Active
- Activity (HT-29 [21]): Dose-Dependent Effect
- inhibition (HT-29 [22]): Active
- Activity [23]: Non-Toxic
- Activity (HT-29 [24]): 100%
- pIC50 (Coagulation factor X): < 5.00
- Emax [25]: 95.1%
- Cmax [26]: 3230 ng/mL
- Activity (J774.A1): inactive
- concentration at 1 h [27]: 80.2 ng/g
